From patent US20100068198A1, “TARGETING OF ALPHA-1 OR ALPHA-3 SUBUNIT OF NA+, K+-ATPASE IN THE TREATMENT OF PROLIFERATIVE DISEASES” (priority 2006, published 2010)
Where two headings read alike, the source gives them in different places.

Legend:
α1β1 Na+/K+-ATPase [1] = target: T1, α1β1 Na+/K+-ATPase (Rattus norvegicus, UniProt P06685); assay: Na+,K+-ATPase activity assay on homogenates of Sf-9 cells expressing α1β1 isozyme (32Pi release from ATP); type: biochemical
T1 construct: made in house; host or cells: Sf-9 insect cells, baculovirus
Experimental: Samples were preincubated with the inhibitor for 10 min. The assay was started by the addition of ATP with 0.2 μCi γ[32P]-ATP (2 mM final concentration). […] Released 32Pi-Pi was converted into phosphomolybdate and extracted with isobutanol. The radioactivity in 150 μl of the organic phase was measured by liquid scintillation counting.

α2β1 Na+/K+-ATPase = target: T2, α2β1 Na+/K+-ATPase (Rattus norvegicus, UniProt P06686); assay: Na+,K+-ATPase activity assay on homogenates of Sf-9 cells expressing α2β1 isozyme (32Pi release from ATP); type: biochemical
T2 construct: made in house; host or cells: Sf-9 insect cells, baculovirus

α3β1 Na+/K+-ATPase = target: T3, α3β1 Na+/K+-ATPase (Rattus norvegicus, UniProt P06687); assay: Na+,K+-ATPase activity assay on homogenates of Sf-9 cells expressing α3β1 isozyme (32Pi release from ATP); type: biochemical
T3 construct: made in house; host or cells: Sf-9 insect cells, baculovirus

[2] = system: C6 rat glioma, MXT mouse mammary carcinoma and mouse B16F10 melanoma cell lines; assay: In vitro anti-tumour effect on three rodent cancer cell lines; type: cell-based; conditions: high doses (10 μM), FIG. 6B
From the text: We also made use of three murine cell lines, i.e., three cancer cell lines including the C6 rat glioma, the MXT mouse mammary adenocarcinomas and the mouse B16F10 melanoma models.
Then, we made use of three rodent cancer cell lines, i.e. the C6 rat glioma, the MXT mouse […] mammary carcinoma and the mouse B16F10 melanoma models.

[3] = system: four human NSCLC cell lines; type: cell-based; conditions: three days, FIG. 6A
[4] = system: α1β1, α2β1 and α3β1 Na,K-ATPases; assay: Na+,K+-ATPase activity assay on Sf-9 homogenates, statements for all isozymes together; type: biochemical
Experimental: Na^+,K^+-ATPase activity was assayed on homogenates of Sf-9 cells expressing the α1β1, α2β1 and α3β1 isozymes. The initial rate of release of ^32Pi from γ[^32P]-ATP was measured. The ATPase activity of 30-40 μg total protein samples was measured in a final volume of 0.25 ml in a medium containing 120 mM NaCl, 30 mM KCl, 3 mM MgCl2, 0.2 mM EGTA, 30 mM Tris-HCl (pH 7.4)±particular concentrations of a tested agent, e.g., herein compound 2.
Samples were preincubated with the inhibitor for 10 min. The assay was started by the addition of ATP with 0.2 μCi γ[32P]-ATP (2 mM final concentration). Following 30 min incubation at 37° C. the tubes were placed on ice, and the reaction was terminated by the addition of 25 μL of 55% trichloroacetic acid. Released 32Pi-Pi was converted into phosphomolybdate and extracted with isobutanol. The radioactivity in 150 μl of the organic phase was measured by liquid scintillation counting. […] The specific activity was therefore determined as the difference in ATP hydrolysis in the presence and absence of 0.0001 M compound 2.
To determine the effect of compound 2 on the activity of the Na^+/K^+-ATPase and its various isozymes, α1β1, α2β1 and α3β1 sodium pump complexes were produced using the baculovirus expression system and dose-response curves to the compound were performed. […]

α1β1 Na+/K+-ATPase [5] = target: T1, α1β1 Na+/K+-ATPase; conditions: Table 4A, from Blanco et al. 2005; read-out: inhibition constant (Ki) α1β1; cited from earlier work

For `C[C@@H]1CC2(NC(=O)CS2)[C@]2(O)O[C@@H]3C[C@]4(CO)C5CC[C@]6(C)[C@@H](C7=CC(=O)OC7)CC[C@]6(O)[C@@H]5CC[C@H]4C[C@H]3O[C@@H]2O1` (stereo partly shown) [Compound 2], the Ki (α1β1 Na+/K+-ATPase [1]; Sf-9 expressed α1β1, Table 4A, read-out: inhibition constant (Ki) α1β1) was 0.16 ± 0.07 µM, the “potency of α1β1 inhibition relative to ouabain” value (α1β1 Na+/K+-ATPase [1]; ratio of Ki versus ouabain) was “approximately 100 times” and the Ki (α2β1 Na+/K+-ATPase) was 0.015 ± 0.008 µM. For the same compound, the Ki (α3β1 Na+/K+-ATPase) was 0.0032 ± 0.0034 µM, the “anti-tumor effects in rodent cancer cell lines” value [2] was “displays actual anti-tumor effects” and the “impairment of global growth (rank among four cardenolides)” value (“impairment of global growth” for short) [3] was “strongest”. For the same compound, the “ATPase activity at 0.0001 M compound versus 0.001 M ouabain” value ([4]; 0.0001 M compound 2) was “comparable to that obtained with 0.001 M ouabain” and the “effect on Na,K-ATPase isozymes” value ([4]; all α1β1, α2β1 and α3β1) was “inhibitory effect”.

For `C[C@H]1O[C@@H](O[C@H]2[C@@H](O)C[C@H](O[C@H]3[C@@H](O)C[C@H](O[C@H]4CC[C@@]5(C)[C@H](CC[C@@H]6[C@@H]5CC[C@]5(C)[C@@H](C7=CC(=O)OC7)CC[C@]65O)C4)O[C@@H]3C)O[C@@H]2C)C[C@H](O)[C@@H]1O` [digitoxin], the “impairment of global growth” value [3] was “digoxin<digitoxin<ouabain<Compound 2”.

In the case of `C[C@@H]1O[C@@H](O[C@H]2C[C@@H](O)[C@]3(CO)[C@H]4[C@H](O)C[C@]5(C)[C@@H](C6=CC(=O)OC6)CC[C@]5(O)[C@@H]4CC[C@]3(O)C2)[C@H](O)[C@H](O)[C@H]1O` [Ouabain], the “impairment of global growth” value [3] is given as “digoxin<digitoxin<ouabain<Compound 2” and the Ki (α1β1 Na+/K+-ATPase [5]) is given as 43 ± 19 µM.

In the case of `C[C@H]1O[C@@H](O[C@H]2[C@@H](O)C[C@H](O[C@H]3[C@@H](O)C[C@H](O[C@H]4CC[C@@]5(C)[C@H](CC[C@@H]6[C@@H]5C[C@@H](O)[C@]5(C)[C@@H](C7=CC(=O)OC7)CC[C@]65O)C4)O[C@@H]3C)O[C@@H]2C)C[C@H](O)[C@@H]1O` [Digoxin, reference compound], the Ki (α1β1 Na+/K+-ATPase [1]) is reported as 0.93 ± 0.41 µM and the “impairment of global growth” value [3] is reported as “weakest”.
